Legend:
[1] = target: T1, Nuclear receptor ROR-gamma (Homo sapiens, UniProt P51449); test: Agonist activity at APC-labelled RORgammat (unknown origin) assessed as biotinylated SRC recruitment measured after 1 hr by dual FRET assay
T1 sequence (P51449 whole entry): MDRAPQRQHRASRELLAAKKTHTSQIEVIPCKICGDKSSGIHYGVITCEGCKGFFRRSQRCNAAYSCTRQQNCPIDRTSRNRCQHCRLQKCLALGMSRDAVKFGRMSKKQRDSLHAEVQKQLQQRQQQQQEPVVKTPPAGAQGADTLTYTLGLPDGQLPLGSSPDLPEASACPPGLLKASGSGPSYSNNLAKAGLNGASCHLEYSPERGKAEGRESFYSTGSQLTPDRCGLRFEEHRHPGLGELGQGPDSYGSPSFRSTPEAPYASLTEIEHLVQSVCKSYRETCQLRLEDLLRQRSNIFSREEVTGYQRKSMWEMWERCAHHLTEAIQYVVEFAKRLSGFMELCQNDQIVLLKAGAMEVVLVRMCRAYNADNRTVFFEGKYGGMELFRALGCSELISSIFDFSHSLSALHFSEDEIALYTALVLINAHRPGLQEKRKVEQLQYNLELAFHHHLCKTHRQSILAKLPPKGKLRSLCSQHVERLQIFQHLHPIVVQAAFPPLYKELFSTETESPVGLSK

[2] = target: T1, Nuclear receptor ROR-gamma; test: Inverse agonist activity at human RORgammat LBD expressed in HEK293T cells assessed inhibition of Gal4 reporter gene transcription measured after 16 to 20 hrs by luciferase reporter gene assay; format: cell-based
[3] = target: T2, Nuclear receptor ROR-gamma (Homo sapiens) (UniProt P51449); test: Inverse agonist activity at human RORgammat LBD expressed in HEK293T cells assessed inhibition of Gal4 reporter gene transcription measured after 16 to 20 hrs by luciferase reporter gene assay relative to control; format: cell-based; details: filed as inverse agonist, time 16-20 hrs
T2 sequence (whole entry): T1 sequence (P51449 whole entry)

[4] = target: T1, Nuclear receptor ROR-gamma; test: Inverse agonist activity at APC-labelled RORgammat (unknown origin) assessed as inhibition of biotinylated SRC recruitment measured after 1 hr by dual FRET assay
[5] = target: T3, Nuclear receptor ROR-gamma (Mus musculus) (UniProt P51450); test: Agonist activity at RORgammat in mouse CD4+ Th17 cells assessed as promotion of IL17 production at 30 nM measured after 4 days by intracellular staining based flow cytometry; format: cell-based; details: filed as agonist, time 4.0 day
T3 sequence (whole entry): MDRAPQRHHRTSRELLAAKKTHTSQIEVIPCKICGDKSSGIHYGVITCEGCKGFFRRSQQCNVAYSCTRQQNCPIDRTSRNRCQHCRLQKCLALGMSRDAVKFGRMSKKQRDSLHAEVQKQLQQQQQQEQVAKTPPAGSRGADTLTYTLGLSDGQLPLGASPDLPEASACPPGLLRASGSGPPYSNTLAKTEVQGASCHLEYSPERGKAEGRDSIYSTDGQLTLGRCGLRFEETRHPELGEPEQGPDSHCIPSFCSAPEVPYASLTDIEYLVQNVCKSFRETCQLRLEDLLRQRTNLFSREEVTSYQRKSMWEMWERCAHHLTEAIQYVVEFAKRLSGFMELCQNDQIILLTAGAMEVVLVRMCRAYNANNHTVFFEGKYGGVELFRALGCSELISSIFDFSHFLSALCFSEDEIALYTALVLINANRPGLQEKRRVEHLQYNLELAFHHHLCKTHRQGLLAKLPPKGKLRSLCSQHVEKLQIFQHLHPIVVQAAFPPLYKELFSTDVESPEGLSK

[6] = target: T1, Nuclear receptor ROR-gamma; test: Agonist activity at human RORgammat LBD expressed in HEK293T cells assessed increase in Gal4 reporter gene transcription measured after 16 to 20 hrs by luciferase reporter gene assay; format: cell-based
[7] = target: T3, Nuclear receptor ROR-gamma (Mus musculus); test: Agonist activity at RORgammat in mouse CD4+ Th17 cells assessed as promotion of IL17 production at 300 nM measured after 4 days by intracellular staining based flow cytometry; format: cell-based; details: filed as agonist, time 4.0 day

Compound	EC50 [1] [nM]	further results
CCS(=O)(=O)c1ccc(CC(=O)Nc2ccc(CCN3CCCc4ccc(OC5COC5)cc43)cc2)cc1	6.6	–
CCS(=O)(=O)c1ccc(CC(=O)Nc2ccc(CCN3CCCc4ccc(C(C)C)cc43)cc2)cc1	22.1	–
CCS(=O)(=O)c1ccc(CC(=O)Nc2ccc(CC(=O)N3CCCc4ccc(CC(C)C)cc43)cc2)cc1	–	IC50 [2]: 151 nM; Imax [3]: 101%; IC50 [4]: 31.5 nM
CS(=O)(=O)c1ccc(CC(=O)Nc2ccc(CCN3CCOc4ccc(C(O)(C(F)(F)F)C(F)(F)F)cc43)cc2)cc1	–	IC50 [4]: 14.6 nM
CCS(=O)(=O)c1ccc(CC(=O)Nc2ccc(CCN3CCCc4ccc(CC(C)(C)C)cc43)cc2)cc1	30.3	–
CCS(=O)(=O)c1ccc(CC(=O)Nc2ccc(CCN3CCCc4ccccc43)cc2)cc1	21.5	–
CCS(=O)(=O)c1ccc(CC(=O)Nc2ccc(CCN3CCCc4ccc(C)cc43)cc2)cc1	16.7	–
CCS(=O)(=O)c1ccc(CC(=O)Nc2ccc(CCN3CCOc4ccc(OC(C)C)cc43)cc2)cc1	7.3	–
CCS(=O)(=O)c1ccc(CC(=O)Nc2ccc(CCN3CCCc4ccc(CC5CC5)cc43)cc2)cc1	12.8	–
CCS(=O)(=O)c1ccc(C(CO)NC(=O)c2ccc(CCN3CCCc4ccc(CC(C)C)cc43)cc2)cc1 (centres undefined)	20.9	–
CCS(=O)(=O)c1ccc(CC(=O)Nc2ccc(CCN3CCCc4ccc(F)cc43)cc2)cc1	11.5	–
CC(C)Oc1ccc2c(c1)N(CCc1ccc(NC(=O)Cc3ccc(S(C)(=O)=O)cc3)cc1)CCO2	4.4	–
CCS(=O)(=O)c1ccc(CNC(=O)c2ccc(CCN3CCCc4ccc(OC5CCC5)cc43)cc2)nc1	12.2	–
CCS(=O)(=O)c1ccc(CC(=O)Nc2ccc(CCN3CCCc4ccc(OC5CCC5)cc43)cc2)cc1	15.6	–
CCS(=O)(=O)c1ccc(CNC(=O)c2ccc(CCN3CCCc4ccc(CC(C)C)cc43)cc2)nc1	8.9	Activity [5]: 56.3%; EC50 [6]: 242 nM; Activity [7]: 104%
CCS(=O)(=O)c1ccc(CNC(=O)c2ccc(CCN3CCCc4ccc(OC5COC5)cc43)cc2)nc1	7.7	–
CCS(=O)(=O)c1ccc(CNC(=O)Nc2ccc(CCN3CCCc4ccc(CC(C)C)cc43)cc2)cc1	25.9	–
CCS(=O)(=O)c1ccc(CC(=O)Nc2ccc(CCN3CCCc4ccc(C=C(C)C)cc43)cc2)cc1	5.3	–
CS(=O)(=O)c1ccc(CC(=O)Nc2ccc(CCN3CCOc4ccc(C(F)(C(F)(F)F)C(F)(F)F)cc43)cc2)cc1	46	–
CCS(=O)(=O)c1ccc(CNC(=O)c2ccc(CCN3CCOc4ccc(CC(C)C)cc43)cc2)nc1	7.1	–
CCS(=O)(=O)c1ccc(CNC(=O)c2ccc(CCN3CCCc4ccc(OC(C)C)cc43)cc2)nc1	8.9	–
CCS(=O)(=O)c1ccc(CNC(=O)c2ccc(CCN3CCOc4ccc(OC(C)C)cc43)cc2)nc1	4.6	EC50 [6]: 135 nM
CC(Oc1ccc2c(c1)N(CCc1ccc(NC(=O)Cc3ccc(S(C)(=O)=O)cc3)cc1)CCO2)C(F)(F)F (centres undefined)	4.4	–
CCS(=O)(=O)c1ccc(CC(=O)Nc2ccc(CCN3CCCc4ccc(CC(C)C)cc43)c(F)c2)cc1	13	–
CC(C)Oc1ccc2c(c1)N(CCc1ccc(C(=O)NCc3ccc(S(C)(=O)=O)cn3)cc1)CCO2	7.5	Activity [5]: 45.2%; EC50 [6]: 107 nM; Activity [7]: 59.4%

From ChEMBL document CHEMBL4819001, “Discovery of tetrahydroquinolines and benzomorpholines as novel potent RORγt agonists” (Eur J Med Chem, 2021)
